Data published in the supplement of paper PMC10307832.

What was measured:
Assay in all cases: relative viability (nuclei count vs DMSO), 5 days (fraction); higher = more cells survive
EHT 1864 + Pictilisib = compound: C1COCCN1CC2=CC(=O)C(=CO2)OCCCCCSC3=C4C=CC(=CC4=NC=C3)C(F)(F)F [EHT 1864] + CS(=O)(=O)N1CCN(Cc2cc3nc(-c4cccc5[nH]ncc45)nc(N4CCOCC4)c3s2)CC1 [Pictilisib] (partner 1 µM)
Procedure, shortened: (§1)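 Medians of duplicate plates are given as relative viability. That measure is the nuclei count in treated wells divided by the count in vehicle wells. Counts were taken on 4× images of lung cancer cell lines in 1536-well plates, 5 days after pin-tool dosing the day after seeding with one drug alone or a fixed anchor-drug dose plus five library-drug doses (not always all listed) in √10 steps.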

EHT 1864 + Alpelisib = compound: C1COCCN1CC2=CC(=O)C(=CO2)OCCCCCSC3=C4C=CC(=CC4=NC=C3)C(F)(F)F [EHT 1864] + Cc1nc(NC(=O)N2CCC[C@H]2C(N)=O)sc1-c1ccnc(C(C)(C)C(F)(F)F)c1 [Alpelisib] (partner 2 µM)
Procedure, shortened: as §1

EHT 1864 + Phenformin = compound: C1COCCN1CC2=CC(=O)C(=CO2)OCCCCCSC3=C4C=CC(=CC4=NC=C3)C(F)(F)F [EHT 1864] + N=C(N)NC(=N)NCCc1ccccc1 [Phenformin] (partner 250 µM)
Procedure, shortened: as §1

EHT 1864 + AZD7762 = compound: C1COCCN1CC2=CC(=O)C(=CO2)OCCCCCSC3=C4C=CC(=CC4=NC=C3)C(F)(F)F [EHT 1864] + NC(=O)Nc1cc(-c2cccc(F)c2)sc1C(=O)N[C@H]1CCCNC1 [AZD7762] (partner 0.2 µM)
Procedure, shortened: as §1

Row | Cell Line | relative viability (EHT 1864 + Pictilisib; first compound 0.04 µM) | relative viability (EHT 1864 + Pictilisib; first compound 0.1265 µM) | relative viability (EHT 1864 + Pictilisib; first compound 0.4 µM) | relative viability (EHT 1864 + Pictilisib; first compound 1.265 µM) | relative viability (EHT 1864 + Pictilisib; first compound 4 µM) | relative viability (EHT 1864 + Alpelisib; first compound 0.04 µM) | relative viability (EHT 1864 + Alpelisib; first compound 0.1265 µM) | relative viability (EHT 1864 + Alpelisib; first compound 0.4 µM) | relative viability (EHT 1864 + Alpelisib; first compound 1.265 µM) | relative viability (EHT 1864 + Alpelisib; first compound 4 µM) | relative viability (EHT 1864 + Phenformin; first compound 0.04 µM) | relative viability (EHT 1864 + Phenformin; first compound 0.1265 µM) | relative viability (EHT 1864 + Phenformin; first compound 0.4 µM) | relative viability (EHT 1864 + Phenformin; first compound 1.265 µM) | relative viability (EHT 1864 + Phenformin; first compound 4 µM) | relative viability (EHT 1864 + AZD7762; first compound 0.04 µM) | relative viability (EHT 1864 + AZD7762; first compound 0.1265 µM) | relative viability (EHT 1864 + AZD7762; first compound 0.4 µM) | relative viability (EHT 1864 + AZD7762; first compound 1.265 µM) | relative viability (EHT 1864 + AZD7762; first compound 4 µM)
1 | 201T | 0.703 | 0.676 | 0.7 | 0.647 | 0.607 | 1.02 | 1.08 | 0.977 | 0.982 | 1.01 | 0.471 | 0.423 | 0.434 | 0.483 | 0.445 | 0.578 | 0.575 | 0.61 | 0.594 | 0.652
2 | A-427 | 0.695 | 0.749 | 0.688 | 0.658 | 0.607 | 1.15 | 1.08 | 1.04 | 1.11 | 1.13 | 0.343 | 0.309 | 0.282 | 0.285 | 0.265 | 0.835 | 0.775 | 0.738 | 0.762 | 0.791
3 | ABC-1 | 0.935 | 0.713 | 0.814 | 0.824 | 0.73 | 0.665 | 1 | 1.05 | 0.92 | 1.07 | 0.24 | 0.258 | 0.208 | 0.273 | 0.218 | 0.977 | 0.805 | 0.623 | 0.843 | 1.52
4 | BEN | 0.523 | 0.532 | 0.589 | 0.576 | 0.61 | 0.941 | 0.825 | 0.92 | 0.938 | 1.1 | 0.251 | 0.275 | 0.282 | 0.263 | 0.247 | 0.681 | 0.632 | 0.86 | 0.665 | 0.802
5 | CAL-12T | 0.596 | 0.542 | 0.446 | 0.457 | 0.574 | 1.23 | 1.14 | 1.08 | 1.25 | 1.05 | 0.582 | 0.574 | 0.662 | 0.583 | 0.596 | 0.689 | 0.543 | 0.624 | 0.517 | 0.516
6 | COR-L23 | 0.716 | 0.523 | 0.78 | 0.692 | 0.822 | 0.832 | 0.878 | 0.815 | 0.855 | 0.76 | 0.53 | 0.368 | 0.484 | 0.5 | 0.491 | – | – | – | – | –
7 | COR-L 105 | 0.424 | 0.461 | 0.462 | 0.414 | 0.378 | 0.906 | 1.06 | 1.03 | 0.969 | 0.841 | 0.535 | 0.427 | 0.602 | 0.536 | 0.535 | – | – | – | – | –
8 | Calu-6 | 0.899 | 0.866 | 0.862 | 0.902 | 0.83 | 0.983 | 0.932 | 0.948 | 1.01 | 0.904 | – | – | – | – | – | – | – | – | – | –
9 | ChaGo-K-1 | 0.816 | 0.664 | 0.736 | – | 0.806 | – | – | – | – | – | 0.497 | 0.427 | 0.544 | 0.48 | 0.463 | 0.881 | 0.834 | 0.956 | 0.871 | 0.907
10 | EBC-1 | 0.425 | 0.342 | 0.385 | 0.41 | 0.426 | 0.843 | 0.697 | 0.886 | 0.908 | 0.881 | – | – | – | – | – | – | – | – | – | –
11 | EKVX | 0.396 | 0.428 | 0.496 | 0.485 | 0.437 | 0.894 | 0.836 | 0.875 | 0.871 | 0.795 | 0.23 | 0.235 | 0.223 | 0.252 | 0.245 | 0.685 | 0.661 | 0.484 | 0.764 | 0.684
12 | EMC-BAC-2 | 0.525 | 0.551 | 0.548 | 0.517 | 0.517 | 0.694 | 0.682 | 0.718 | 0.705 | 0.768 | 0.549 | 0.48 | 0.558 | 0.502 | 0.486 | 1.24 | 0.944 | 1.1 | 1.09 | 0.974
13 | EPLC-272H | 0.307 | 0.275 | 0.446 | 0.166 | 0.278 | 1.08 | 0.933 | 0.977 | 1.07 | 0.999 | 0.33 | 0.34 | 0.375 | 0.36 | 0.248 | 0.387 | 0.379 | 0.267 | 0.259 | 0.236
14 | H3255 | 0.405 | 0.421 | 0.512 | 0.479 | 0.518 | 0.652 | 0.516 | 0.675 | 0.718 | 0.711 | 0.383 | 0.394 | 0.424 | 0.36 | 0.399 | 0.797 | 0.795 | 0.995 | 0.867 | 1.04
15 | HARA | 0.393 | 0.359 | 0.531 | 0.321 | 0.446 | 0.762 | 0.758 | 0.843 | 0.814 | 0.857 | 0.396 | 0.483 | 0.466 | 0.351 | 0.416 | 0.626 | – | 0.329 | 0.262 | 0.328
